Measured values taken from PMC5454392, “Selective BET bromodomain inhibition as an antifungal therapeutic strategy” (Nature Communications, 2017).
“Also recorded” adds a separate entry of the source. Read-outs that look alike come from different tables or passages of the source.

How the values were obtained:
[1] = target: T1, CaBdf1 BD1 (Candida albicans, UniProt Q5A4W8); assay: HTRF assay, inhibition of BD binding to H4ac4 peptide; set-up: species or system C. albicans; settings: for IC50: H4ac4 peptide, read-out: IC50
T1 construct: made in house; host or cells: E. coli BL21(DE3)

[2] = target: T2, human Brd4 BD1 (Homo sapiens, UniProt O60885); assay: Isothermal titration calorimetry (ITC); format: binding; set-up: human Brd4 BD1 (residues 22–204); His tag with TEV site (N, cleaved yes); made in house; host or cells: E. coli BL21(DE3)
Procedure: (§1) Proteins used for crystallization and for ITC. […] Cells were resuspended in buffer A (50 mM Tris-HCl pH 7.5, 300 mM NaCl, 10% glycerol, 25 mM imidazole, 5 mM β-mercaptoethanol and protease inhibitors) and lysed by sonication. The cleared lysate was incubated with Ni-NTA resin (Qiagen) and washed with buffer A containing 0.5 M NaCl. Proteins were eluted with 250 mM imidazole, dialysed overnight in the presence of His-tagged TEV protease against buffer A containing no imidazole and incubated with Ni-NTA resin to remove His-tagged species. Proteins were further purified on a Superdex 75 10/300 (GE Healthcare) column in 50 mM Hepes pH 7.5, 150 mM NaCl, 0.5 mM dithiothreitol (DTT). Proteins were concentrated to >20 mg ml^−1 on a Centricon device (Millipore) and used for ITC, TSA and crystallization experiments. […] Expression and purification were performed as above, except that buffer A was replaced by buffer B (50 mM Hepes pH 7.5, 500 mM NaCl, 5% glycerol, 5 mM imidazole and protease inhibitors) and gel filtration was performed in 10 mM Hepes pH 7.5, 500 mM NaCl and 5% glycerol.
(§2) Calorimetric experiments were performed on a NanoITC calorimeter (TA Instruments) at 25 °C while stirring at 250 r.p.m. All proteins were buffer exchanged by gel filtration into 50 mM Hepes pH 7.5, 150 mM NaCl, 0.5 mM DTT, except for SMARCA2 and SMARCA4A BDs, which were exchanged into 10 mM Hepes pH 7.5, 500 mM NaCl and 5% glycerol. […] Titrations consisted of an initial injection of 1.5 μl followed by 19 identical injections of 2.5 μl made at time intervals of 5 min. ITC data were corrected for the heat of dilution of injectant into buffer and analysed with software provided by the manufacturer using a single binding site model. The first data point was excluded from the analysis. Thermodynamic parameters determined from the ITC data are summarized in Supplementary Table 1.

[3] = target: T3, CaBdf1 BD2 Y425F (Candida albicans, UniProt Q5A4W8, Y425F); assay: Histone peptide microarray binding, YF mutant; set-up: species or system C. albicans; settings: CaBdf1 BD2 YF mutant; for Peptide array signal, raw data, Left: left replicate array; for Peptide array signal, raw data, Right: right replicate array
T3 construct: made in house; host or cells: E. coli BL21(DE3), inferred from the wild-type GST construct
Procedure: (§3) In short, arrays were blocked and incubated with 1 μM of purified CaBdf1 BD1 or BD2. Arrays were incubated with recombinant BDs for 2 h at 4 °C in binding buffer (Tris-HCl 50 mM pH 7.4, NP-40 0.1%, NaCl 150 mM, glycerol 10%). […] Assays were performed in duplicate. Images were acquired on a Bio-Rad ChemiDoc XRS Imaging machine and data were quantified using the array analyser software provided by Active Motif.

[4] = target: T4, CaBdf1 BD1 Y248F (Candida albicans, UniProt Q5A4W8, Y248F); assay: Histone peptide microarray binding, YF mutant; set-up: species or system C. albicans; settings: CaBdf1 BD1 YF mutant; for Peptide array signal, raw data, Left: left replicate array; for Peptide array signal, raw data, Right: right replicate array
T4 construct: made in house; host or cells: E. coli BL21(DE3), inferred from the wild-type GST construct
Procedure: as §3

[5] = test system: C. albicans; assay: C. albicans growth assay in liquid media; format: cell-based; settings: for antifungal activity against mutant strains in which either BD1 or BD2 was inactivated (in words): liquid media, WT allele repressed
Procedure: Growth on liquid media. C. albicans strains were grown at 30 °C in SC medium to an OD600 of 0.5–0.8. For the evaluation of growth defects related to Bdf1 mutations, log-phase growing cells were counted using a Neubauer chamber and diluted in liquid media to a final concentration of 5,400 cells per ml per well in a sterile 96-well plate. Dox (50 μg ml^−1) or methionine (5 mM)/cysteine (0.25 mM) were added to the media if required. Plates were incubated at 30 °C and OD600 was measured using a Multiskan FC Microplate Photometer (Thermo Fisher). For the evaluation of chemical compounds, strains were grown in SC medium supplemented with 50 μg ml^−1 Dox or 5 mM methionine/0.25 mM cysteine 24 h before counting and then seeded in 96-well plates at the same concentration as mentioned above, with or without chemical compounds. Statistical tests were performed using two-sided Welch t-tests.

[6] = target: T1, CaBdf1 BD1; assay: Isothermal titration calorimetry (ITC); format: binding
Procedure: as §1, §2

[7] = target: T2, human Brd4 BD1; assay: HTRF assay, inhibition of BD binding to H4ac4 peptide; set-up: human Brd4 BD1 (residues 22–204); His tag with TEV site (N, cleaved yes); made in house; host or cells: E. coli BL21(DE3)
[8] = target: T1, CaBdf1 BD1; format: binding; settings: CaBdf1 BD1 WT; for Peptide array signal, raw data, Left: left replicate array; for Peptide array signal, raw data, Rigt: right replicate array
Procedure: (§4) In short, arrays were blocked and incubated with 1 μM of purified CaBdf1 BD1 or BD2. Arrays were incubated with recombinant BDs for 2 h at 4 °C in binding buffer (Tris-HCl 50 mM pH 7.4, NP-40 0.1%, NaCl 150 mM, glycerol 10%). […] Assays were performed in duplicate.

[9] = target: T5, CaBdf1 BD2 (Candida albicans, UniProt Q5A4W8); format: binding; set-up: made in house; host or cells: E. coli BL21(DE3); settings: CaBdf1 BD2 WT; for Peptide array signal, raw data, Left: left replicate array; for Peptide array signal, raw data, Rigt: right replicate array
Procedure: as §4
Target sequence in this assay (Q5A4W8 361-501): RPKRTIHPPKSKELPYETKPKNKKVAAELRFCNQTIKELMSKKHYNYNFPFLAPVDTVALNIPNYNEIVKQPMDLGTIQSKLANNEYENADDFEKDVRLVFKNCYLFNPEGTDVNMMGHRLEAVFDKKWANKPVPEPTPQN

[10] = target: T6, SMARCA4 BD (Homo sapiens, UniProt P51532); assay: Isothermal titration calorimetry (ITC); format: binding
T6 construct: Human SMARCA2 and SMARCA4 BD plasmids bearing an N-terminal His tag and TEV protease site; His tag with TEV site (N, cleaved yes); 74664; host or cells: E. coli BL21(DE3)
Procedure: as §1, §2

[11] = target: T7, SMARCA2 BD (Homo sapiens, UniProt P51531); assay: Isothermal titration calorimetry (ITC); format: binding
T7 construct: Human SMARCA2 and SMARCA4 BD plasmids bearing an N-terminal His tag and TEV protease site; His tag with TEV site (N, cleaved yes); 73250; host or cells: E. coli BL21(DE3)
Procedure: as §1, §2

[12] = target: T7, SMARCA2 BD; assay: BROMOscan profiling (DiscoverX); format: binding; settings: as read by reviewer from the BROMOscan data
Procedure: (§5) BROMOscan profiling was performed by DiscoverX (Fremont, CA, USA). […] Ligand-loading densities were optimized as described.

[13] = test system: 32 representative human (BET and non-BET) BDs; assay: BROMOscan profiling (DiscoverX); format: binding; settings: 10 μM; 35% of control used as cutoff for significant inhibition
Procedure: as §5

[14] = target: T5, CaBdf1 BD2; assay: HTRF assay, inhibition of BD binding to H4ac4 peptide; set-up: made in house; host or cells: E. coli BL21(DE3)
Target sequence in this assay (Q5A4W8 361-501): as above

[15] = target: T2, human Brd4 BD1; assay: BROMOscan profiling (DiscoverX); format: binding; set-up: purchased DiscoverX; host or cells: T7 phage grown in an E. coli host derived from BL21; settings: 10 μM; as read by reviewer from the BROMOscan data
Procedure: as §5

[16] = target: T5, CaBdf1 BD2; assay: Isothermal titration calorimetry (ITC); format: binding; set-up: His tag with TEV site (N, cleaved yes); made in house; host or cells: E. coli BL21(DE3)
Procedure: as §1, §2
Target sequence in this assay (Q5A4W8 386-491): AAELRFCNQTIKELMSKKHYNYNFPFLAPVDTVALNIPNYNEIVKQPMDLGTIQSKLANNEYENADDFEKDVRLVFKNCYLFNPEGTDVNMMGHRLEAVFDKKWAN

[17] = target: T8, human Brd4 BD2 (Homo sapiens, UniProt O60885); assay: HTRF assay, inhibition of BD binding to H4ac4 peptide
T8 construct: GST-tagged human Brd4 BD2 (residues 349–460) was purchased from Reaction Biology Corp; purchased Reaction Biology Corp

T6 sequence (P51532 1453-1564 limits assumed): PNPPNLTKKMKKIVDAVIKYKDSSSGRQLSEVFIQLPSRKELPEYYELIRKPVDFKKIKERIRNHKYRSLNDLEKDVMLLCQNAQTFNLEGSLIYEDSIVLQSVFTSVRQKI
T1 sequence (Q5A4W8 193-327): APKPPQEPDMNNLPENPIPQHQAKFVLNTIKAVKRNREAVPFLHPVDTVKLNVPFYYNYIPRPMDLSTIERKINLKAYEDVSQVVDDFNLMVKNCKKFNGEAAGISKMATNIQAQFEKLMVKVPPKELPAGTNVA
T7 sequence (P51531 1378-1506 limits assumed): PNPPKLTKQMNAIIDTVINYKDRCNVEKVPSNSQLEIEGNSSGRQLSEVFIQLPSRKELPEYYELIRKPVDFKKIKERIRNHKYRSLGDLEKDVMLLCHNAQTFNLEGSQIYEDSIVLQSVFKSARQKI
T4 sequence (Q5A4W8 193-327 Y248F): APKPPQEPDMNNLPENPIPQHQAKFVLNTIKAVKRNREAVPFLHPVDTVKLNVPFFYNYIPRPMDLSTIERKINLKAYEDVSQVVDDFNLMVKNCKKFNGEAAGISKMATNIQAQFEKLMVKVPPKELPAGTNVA
T3 sequence (Q5A4W8 361-501 Y425F): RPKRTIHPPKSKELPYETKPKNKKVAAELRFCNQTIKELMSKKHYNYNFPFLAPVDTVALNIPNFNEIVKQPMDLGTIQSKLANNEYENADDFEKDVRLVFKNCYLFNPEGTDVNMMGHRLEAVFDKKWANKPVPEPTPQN

Row | SMILES | IC50 ([1]; HTRF) | Peptide array signal, raw data, Left [3] | Peptide array signal, raw data, Right [3] | Peptide array signal, raw data, Left [4] | Peptide array signal, raw data, Right [4] | N (stoichiometry) ([6]; ITC, 25 °C) | TΔS ([6]; ITC, 25 °C) | ΔH ([6]; ITC, 25 °C) | Peptide array signal, Normalized (0 to 100%), Average [8] | Peptide array signal, raw data, Left [8] | Peptide array signal, raw data, Rigt [8] | Peptide array signal, Normalized (0 to 100%), Average [9] | Peptide array signal, raw data, Left [9] | Peptide array signal, raw data, Rigt [9] | antifungal activity against mutant strains in which either BD1 or BD2 was inactivated (in words) [5] | binding to SMARCA4 BD (in words) [10] | binding to SMARCA2 BD (in words) [11] | activity against human BDs in BROMOscan (in words) [13] | also measured
1 | CN1C(=O)c2ccccc2Sc2cc(NC(=O)C3CCCO3)ccc21 (stereo not shown) [Compound 3] | 1.7 ± 0.6 µM | 0.001942 | 0.002427 | 0.004458 | 0.001715 | 1.05 ± 0.03 | 0.44 kcal/mol | -6.81 ± 0.12 kcal/mol | 0.0363% | 0.001069 | 0.003207 | 0.296% | 0.005491 | 0.01167 | – | – | – | – | inhibition of CaBdf1 BD1 (in words) ([1]; HTRF): low-micromolar affinity; IC50 for Brd4 BD1 relative to IC50 for CaBdf1 BD1 ([1]; HTRF IC50 ratio): 7 fold; Kd [2]: 13.4 ± 1.7 µM; N (stoichiometry) ([2]; ITC, 25 °C): 0.92 ± 0.03; TΔS ([2]; ITC, 25 °C): 3.107 kcal/mol; ΔG ([2]; ITC, 25 °C): -6.644 kcal/mol; ΔH ([2]; ITC, 25 °C): -3.54 ± 0.454 kcal/mol; EC50 ([5]; Candida albicans, read-out: cellular EC50): 35 ± 7 µM; growth of strains expressing WT Bdf1 or Bdf1 inactivated in BD1 (functional BD2) (in words) ([5]; liquid culture, Met/Cys or Dox): little effect; also recorded: insensitive; growth of strains inactivated in BD2 (bdf1-bd2Δ, bdf1-Y425F) (in words) ([5]; liquid culture, Met/Cys or Dox): significantly inhibited; also recorded: compromises the in vitro growth; also recorded: sensitive; Kd [6]: 4.8 ± 0.2 µM; ΔG ([6]; ITC, 25 °C): -7.251 kcal/mol; IC50 [7]: 12.5 ± 0.8 µM
2 | O=C1c2ccccc2Sc2cc(-c3noc(-c4cnccn4)n3)ccc2N1C1CC1 [Compound 1] | – | 0 | 0.001456 | 0 | 0.001715 | 0.91 ± 0.06 | 4.885 kcal/mol | -2.34 ± 0.621 kcal/mol | 0% | 0 | 0.003741 | 0.259% | 0.004804 | 0.01167 | little antifungal activity; also recorded: did not significantly inhibit growth | no detectable binding; also recorded: did not detectably bind | no detectable binding; also recorded: did not detectably bind | no significant inhibition was detected; also recorded: no significant activity; also recorded: do not significantly inhibit | binding to Brd4 BD1 (in words) ([2]; ITC): no or only modest binding and inhibition; IC50 ([7]; HTRF, H4ac4 peptide): ~40 µM; inhibition of Brd4 BD1 (in words) ([7]; HTRF, highest concentration 20 μM): no or only modest binding and inhibition; inhibition at 10 µM [12]: ~65%; inhibition of CaBdf1 BD2 (in words) ([14]; HTRF): no or only modest binding and inhibition; inhibition in BROMOscan (in words) [15]: hardly inhibits; binding to CaBdf1 BD2 (in words) ([16]; ITC): no or only modest binding and inhibition
3 | Cc1ccc(Nc2c(-c3ccc(O)cc3)nc3c(C)cccn23)cc1 [Compound 2] | ≥ 40 µM | 0.0004854 | 0.002427 | 0.003429 | 0.002743 | – | – | – | 0.0725% | 0.0005345 | 0.004276 | 0.37% | 0.005491 | 0.01304 | little antifungal activity | no detectable binding; also recorded: no significant inhibition | no detectable binding; also recorded: no significant inhibition | no significant inhibition was detected; also recorded: do not significantly inhibit | IC50 [17]: ≥ 40 µM; IC50 [14]: 1.1 µM; Kd [16]: 2.1 µM; N (stoichiometry) ([16]; ITC, 25 °C): 1.21 ± 0.11; TΔS ([16]; ITC, 25 °C): 2.01 kcal/mol; ΔG ([16]; ITC, 25 °C): -7.741 kcal/mol; ΔH ([16]; ITC, 25 °C): -5.74 ± 0.96 kcal/mol
